Data reported in US8207160B2, “Tetrahydrobenzazepines and their use in he modulation of the dopamine D3 receptor” (Abbott GmbH & Co. KG, priority 2003, dated 2012).
Read-outs that look alike come from different tables or passages of the source.

Assays:
[1] = target: T1, human dopamine D3 receptors (Homo sapiens, UniProt P35462); experiment: Dopamine D3 receptor binding, displacement of [125I]-iodosulpride
T1 construct: expressed in transfected cells; membranes used
Protocol: (§1) C) Biological Investigations—Receptor-Binding Studies: • The substance to be tested was dissolved either in methanol/Chremophor®) (BASF-AG) or in dimethyl sulfoxide and then diluted with water to the desired concentration.
I. Dopamine D3 Receptor: • The mixture (0.250 ml) was composed of membranes from ˜10^6 HEK-293 cells with stably expressed human dopamine D3 receptors, 0.1 nM [^125I]-iodosulpride and incubation buffer (total binding) or additionally test substance (inhibition plot) or 1 μM spiperone (nonspecific binding). Triplicate assays were carried out. • The incubation buffer contained 50 mM Tris, 120 mM NaCl, 5 mM KCl, 2 mM CaCl2, 2 mM MgCl2 and 0.1% bovine serum albumin, 10 μM quinolone, 0.1% ascorbic acid (prepared freshly each day). The buffer was adjusted to pH 7.4 with HCl.
(§2) III. Measurement and Evaluation: • After incubation at 25° C. for 60 minutes, the mixtures were filtered through Wathman GF/B glass fiber filters under vacuum using a cell harvester. The filters were transferred using a filter transfer system into scintillation vials. After addition of 4 ml of Ultima Gold® (Packard), the samples were shaken for one hour and then the radioactivity was counted in a Beta Counter (Packard, Tricarb 2000 or 2200CA). The cp values were converted into dpm on the basis of a standard quench series with the aid of the program supplied with the instrument. • The inhibition plots were evaluated by iterative nonlinear regression analysis using the Statistical Analysis System (SAS), similar to the “LIGAND” program described by Munson and Rodbard. • The compounds of the invention show very good affinities for the D3 receptor in these assays (<100 nM, frequently <50 nM) and bind selectively to the D3 receptor.

[2] = target: T2, human dopamine D2L receptors (long isoform) (Homo sapiens, UniProt P14416); experiment: Dopamine D2L receptor binding, displacement of [125I]-iodospiperone; conditions: Ki(D2L)/Ki(D3); human D2L and D3 receptors in HEK-293 membranes
T2 construct: expressed in transfected cells; membranes used
Protocol: as §1
II. Dopamine D2L receptor: • The mixture (1 ml) was composed of membranes from ˜10^6 HEK-293 cells with stably expressed human dopamine D2L receptors (long isoform) and 0.01 nM [^125I]-iodospiperone and incubation buffer (total binding) or additionally test substance (inhibition plot) or 1 μM haloperidol (nonspecific binding). Triplicate assays were carried out. • The incubation buffer contained 50 mM Tris, 120 mM NaCl, 5 mM KCl, 2 mM CaCl2, 2 mM MgCl2 and 0.1% bovine serum albumin. The buffer was adjusted to 7.4 with HCl.
as §2

[3] = membranes from HEK-293 cells with stably expressed human dopamine D3 receptors, 0.1 nM [125I]-iodosulpride, 25° C., 60 minutes, read-out: Ki (D3)

T2 sequence (P14416 whole entry, canonical isoform): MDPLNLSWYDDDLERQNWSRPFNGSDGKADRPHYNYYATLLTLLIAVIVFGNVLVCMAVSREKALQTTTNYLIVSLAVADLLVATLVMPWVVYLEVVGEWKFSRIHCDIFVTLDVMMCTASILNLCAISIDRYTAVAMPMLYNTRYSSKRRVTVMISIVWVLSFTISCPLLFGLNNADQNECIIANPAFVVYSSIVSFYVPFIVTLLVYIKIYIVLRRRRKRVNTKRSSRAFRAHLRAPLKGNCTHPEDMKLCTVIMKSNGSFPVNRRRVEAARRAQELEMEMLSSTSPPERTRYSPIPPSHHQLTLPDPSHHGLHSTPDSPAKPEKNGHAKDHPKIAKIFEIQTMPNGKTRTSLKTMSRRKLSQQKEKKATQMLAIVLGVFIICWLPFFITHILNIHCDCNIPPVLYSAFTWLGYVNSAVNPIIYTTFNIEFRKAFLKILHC
T1 sequence (P35462 whole entry): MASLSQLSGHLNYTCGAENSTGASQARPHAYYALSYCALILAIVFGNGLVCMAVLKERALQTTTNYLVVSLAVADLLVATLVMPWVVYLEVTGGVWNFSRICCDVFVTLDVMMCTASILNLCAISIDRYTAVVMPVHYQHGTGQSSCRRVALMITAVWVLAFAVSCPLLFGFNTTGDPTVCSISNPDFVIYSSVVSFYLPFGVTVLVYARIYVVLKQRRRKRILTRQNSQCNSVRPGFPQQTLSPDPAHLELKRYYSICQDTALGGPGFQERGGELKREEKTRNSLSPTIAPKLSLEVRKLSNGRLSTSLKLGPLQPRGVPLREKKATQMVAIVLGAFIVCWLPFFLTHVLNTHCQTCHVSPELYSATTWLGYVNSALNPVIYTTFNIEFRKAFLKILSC

SMILES | Ki [1, 3] [nM] | Selectivity vs. D2L* [2] | Ki [1] [nM]
CCCN1CCc2ccc(NS(=O)(=O)c3ccc(OC(F)(F)F)cc3)cc2CC1 [Example 2, N-(3-Propyl-2,3,4,5-Tetrahydro-1H-3-Benzazepin-7-yl)-4-Trifluoromethoxy-Benzenesulfonamide] | 7.1 | 99 | –
CCCN1CCc2ccc(NS(=O)(=O)c3ccc(Cl)cc3)cc2CC1 [Example 3, 4-Chloro-N-(3-Propyl-2,3,4,5-Tetrahydro-1H-3-Benzazepin-7-yl)Benzenesulfonamide] | 4.1 | 68 | –
C=Cc1ccc(S(=O)(=O)Nc2ccc3c(c2)CCN(CCC)CC3)cc1.Cl [Example 4, N-(3-Propyl-2,3,4,5-Tetrahydro-1H-3-Benzazepin-7-yl)-4-Vinylbenzenesulfonamide Hydrochloride] | 0.5 | 435 | –
CCCN1CCc2ccc(NS(=O)(=O)c3ccc(CC)cc3)cc2CC1.Cl [Example 5, 4-Ethyl-N-(3-Propyl-2,3,4,5-Tetrahydro-1H-3-Benzazepin-7-yl)Benzenesulfonamide Hydrochloride] | 1 | 368 | –
CCCN1CCc2ccc(NS(=O)(=O)c3ccc(C(F)(F)F)cc3)cc2CC1.Cl [Example 6, N-(3-Propyl-2,3,4,5-Tetrahydro-1H-3-Benzazepin-7-yl)-4-(Trifluoromethyl)-Benzenesulfonamide Hydrochloride] | 5.8 | 252 | –
CCCN1CCc2ccc(NS(=O)(=O)c3ccc(C(C)(C)C)cc3)cc2CC1.Cl [Example 7, 4-Tert-Butyl-N-(3-Propyl-2,3,4,5-Tetrahydro-1H-3-Benzazepin-7-yl)Benzenesulfonamide Hydrochloride] | 4.1 | 120 | –
CCCN1CCc2ccc(NS(=O)(=O)c3ccc(C)cc3)cc2CC1.O=C(O)C(F)(F)F [Example 11, 4-Methyl-N-(3-Propyl-2,3,4,5-Tetrahydro-1H-3-Benzazepin-7-yl)Benzene Sulfonamide Trifluoroacetate] | – | 112 | 4.7
CCCN1CCc2ccc(NS(=O)(=O)c3c(C)cc(C)cc3C)cc2CC1.O=C(O)C(F)(F)F [Example 12, 2,4,6-Trimethyl-N-(3-Propyl-2,3,4,5-Tetrahydro-1H-3-Benzazepin-7-yl)-Benzenesulfonamide Trifluoroacetate] | 7.2 | 90 | –
CCCCc1ccc(S(=O)(=O)Nc2ccc3c(c2)CCN(CCC)CC3)cc1.O=C(O)C(F)(F)F [Example 13, 4-Butyl-N-(3-Propyl-2,3,4,5-Tetrahydro-1H-3-Benzazepin-7-yl)Benzene-Sulfonamide Trifluoroacetate] | 0.6 | 143 | –
CCCN1CCc2ccc(NS(=O)(=O)c3ccc(C(C)(C)CC)cc3)cc2CC1.O=C(O)C(F)(F)F [Example 14, 4-(1,1-Dimethylpropyl)-N-(3-Propyl-2,3,4,5-Tetrahydro-1H-3-Benzazepin-7-yl)Benzenesulfonamide Trifluoroacetate] | 3.6 | 113 | –
CCCN1CCc2ccc(NS(=O)(=O)c3ccc(OC)cc3)cc2CC1.O=C(O)C(F)(F)F [Example 16, 4-Methoxy-N-(3-Propyl-2,3,4,5-Tetrahydro-1H-3-Benzazepin-7-yl)Benzene-Sulfonamide Trifluoroacetate] | 8.1 | 142 | –
CCCN1CCc2ccc(NS(=O)(=O)c3ccc4ccccc4c3)cc2CC1.O=C(O)C(F)(F)F [Example 17, N-(3-Propyl-2,3,4,5-Tetrahydro-1H-3-Benzazepin-7-yl)Naphthalene-2-Sulfonamide Trifluoroacetate] | 4.5 | 68 | –
CCCN1CCc2ccc(NS(=O)(=O)c3ccc(Cl)cc3Cl)cc2CC1.O=C(O)C(F)(F)F [Example 18, 2,4-Dichloro-N-(3-Propyl-2,3,4,5-Tetrahydro-1H-3-Benzazepin-7-yl)Benzenesulfonamide Trifluoroacetate] | 7.3 | 85 | –
CCCN1CCc2ccc(NS(=O)(=O)c3ccc(Br)cc3)cc2CC1.O=C(O)C(F)(F)F [Example 19, 4-Bromo-N-(3-Propyl-2,3,4,5-Tetrahydro-1H-3-Benzazepin-7-yl)Benzene-Sulfonamide Trifluoroacetate] | – | 65 | 3
CCCN1CCc2ccc(NS(=O)(=O)c3ccc(Br)cc3C)cc2CC1.O=C(O)C(F)(F)F [Example 20, 4-Bromo-2-Methyl-N-(3-Propyl-2,3,4,5-Tetrahydro-1H-3-Benzazepin-7-yl)-Benzenesulfonamide Trifluoroacetate] | 7.1 | 85 | –
CCCN1CCc2ccc(NS(=O)(=O)c3ccc(Cl)s3)cc2CC1.O=C(O)C(F)(F)F [Example 21, N-(3-Propyl-2,3,4,5-Tetrahydro-1H-3-Benzazepin-7-yl)-5-Chlorothiophene-2-Sulfonamide Trifluoroacetate] | – | 47 | 16
CCCN1CCc2ccc(NS(=O)(=O)c3cc(Cl)sc3Cl)cc2CC1.O=C(O)C(F)(F)F [Example 22, N-(3-Propyl-2,3,4,5-Tetrahydro-1H-3-Benzazepin-7-yl)-2,5-Dichlorothiophene-3-Sulfonamide Trifluoroacetate] | – | 46 | 13
CCCN1CCc2ccc(N(C)S(=O)(=O)c3ccc(C(C)C)cc3)cc2CC1.O=C(O)C(F)(F)F [Example 31, 4-Isopropyl-N-Methyl-N-(3-Propyl-2,3,4,5-tetrahydro-1H-3-Benzazepin-7-yl)Benzenesulfonamide Trifluoroacetate] | 1 | 63 | –

Further lines, with some results ahead:

Ki [1, 3] [nM] | Selectivity vs. D2L* [2] | SMILES | Ki [1] [nM]
0.3 | 330 | CCCN1CCc2ccc(NS(=O)(=O)c3ccc(C(C)C)cc3)cc2CC1.Cl [Example 8, 4-Isopropyl-N-(3-Propyl-2,3,4,5-Tetrahydro-1H-3-Benzazepin-7-yl)Benzenesulfonamide Hydrochloride] | –
16.5 | 271 | CCCN1CCc2ccc(NS(=O)(=O)c3ccc(C(C)=O)cc3)cc2CC1 [Example 10, 4-Acetyl-N-(3-Propyl-2,3,4,5-Tetrahydro-1H-3-Benzazepin-7-yl)Benzenesulfonamide] | –
28.2 | 40 | CCCN1CCc2ccc(S(=O)(=O)Nc3ccc(OC(F)(F)F)cc3)cc2CC1.Cl [Example 35, 3-Propyl-N-[4-(Trifluoromethoxy)Phenyl]-2,3,4,5-Tetrahydro-1H-3-Benzazepine-7-Sulfonamide Hydrochloride] | –
1 | 446 | CCCN1CCc2ccc(CS(=O)(=O)c3ccc(C(C)C)cc3)cc2CC1 [Example 36, 7-(4-Isopropylbenzenesulfonylmethyl)-3-Propyl-2,3,4,5-Tetrahydro-1H-3-Benzazepine] | –
1.2 | 66 | CC(C)c1ccc(S(=O)(=O)Nc2ccc3c(c2)CCN(C)CC3)cc1.Cl [Example 56, 4-Isopropyl-N-(3-Methyl-2,3,4,5-Tetrahydro-1H-3-Benzazepin-7-yl)Benzenesulfonamide Hydrochloride] | –
2.1 | 115 | CC(C)c1ccc(S(=O)(=O)Nc2ccc3c(c2)CCN(CC2CC2)CC3)cc1.Cl [Example 57, N-(3-Cyclopropylmethyl-2,3,4,5-Tetrahydro-1H-3-Benzazepin-7-yl)4-Isopropylbenzenesulfonamide Hydrochloride] | –
3.4 | 84 | C=CCN1CCc2ccc(NS(=O)(=O)c3ccc(C(F)(F)F)cc3)cc2CC1.Cl [Example 58, N-(3-Allyl-2,3,4,5-Tetrahydro-1H-3-Benzazepin-7-yl)4-(Trifluoromethyl)Benzenesulfonamide Hydrochloride] | –
0.4 | 141 | C=CCN1CCc2ccc(NS(=O)(=O)c3ccc(C(C)C)cc3)cc2CC1.Cl [Example 65, N-(3-Allyl-2,3,4,5-Tetrahydro-1H-3-Benzazepin-7-yl)-4-(Isopropyl)Benzenesulfonamide Hydrochloride] | –
1.2 | 146 | CC(C)c1ccc(S(=O)(=O)Nc2ccc3c(c2)CCN(CCCF)CC3)cc1.Cl [Example 66, N-[3-(3-Fluoropropyl)-2,3,4,5-Tetrahydro-1H-3-Benzazepin-7-yl]-4-Isopropylbenzenesulfonamide Hydrochloride] | –
